{"source": "ChEMBL document CHEMBL3044787", "about": "“Carboxylesterase of the Rice Stem Borer, Chilo suppressalis WALKER (Lepidoptera: Pyralidae), Responsible for Fenitrothion Resistance as a Sequestering Protein” (J Pestic Sci, 1996)", "key": {"[1]": {"assay": "Binding affinity to carboxylesterase in organophosphate-resistant Chilo suppressalis (rice stem borer) midgut soluble fraction assessed as inhibition of [14C]fenitroxon-sequestering activity at 10 umol/ml", "conditions": "probe [14C]fenitroxon; call rule not given here"}, "Chilo suppressalis [2]": {"tested_on": "Chilo suppressalis", "assay": "Insecticidal activity against wild-type Chilo suppressalis (rice stem borer) fifth-instar larvae assessed as mortality after 24 hr", "type": "functional"}, "Chilo suppressalis [3]": {"tested_on": "Chilo suppressalis", "assay": "Insecticidal activity against organophosphate-resistant Chilo suppressalis (rice stem borer) fifth-instar larvae assessed as mortality after 24 hr", "type": "functional"}, "Carboxylesterase": {"molecular_target": "T1, Carboxylesterase (Loxostege sticticalis, UniProt B3TNN2)", "T1 sequence (B3TNN2 whole entry)": "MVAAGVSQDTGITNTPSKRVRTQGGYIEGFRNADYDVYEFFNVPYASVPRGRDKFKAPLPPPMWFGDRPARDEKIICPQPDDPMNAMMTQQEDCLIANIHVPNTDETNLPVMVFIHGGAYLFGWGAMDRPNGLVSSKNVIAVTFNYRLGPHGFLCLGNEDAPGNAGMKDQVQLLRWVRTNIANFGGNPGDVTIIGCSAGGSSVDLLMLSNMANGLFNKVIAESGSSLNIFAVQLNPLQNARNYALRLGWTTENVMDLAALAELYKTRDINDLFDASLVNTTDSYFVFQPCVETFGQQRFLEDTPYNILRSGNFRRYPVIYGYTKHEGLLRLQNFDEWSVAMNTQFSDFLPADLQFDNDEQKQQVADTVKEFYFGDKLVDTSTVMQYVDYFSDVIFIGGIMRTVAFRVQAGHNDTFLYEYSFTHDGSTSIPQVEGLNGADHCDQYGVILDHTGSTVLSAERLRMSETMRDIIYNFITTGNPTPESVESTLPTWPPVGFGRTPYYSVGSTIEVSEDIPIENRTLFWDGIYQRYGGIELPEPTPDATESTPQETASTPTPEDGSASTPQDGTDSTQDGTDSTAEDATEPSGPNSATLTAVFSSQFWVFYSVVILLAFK", "assay": "Inhibition of carboxylesterase major isoform in organophosphate-resistant Chilo suppressalis (rice stem borer) midgut soluble fraction at 15 ng"}, "Fat body [4]": {"tested_on": "Fat body", "assay": "Drug uptake in fat body of organophosphate-resistant Chilo suppressalis (rice stem borer) fifth-instar larvae assessed per mg protein by liquid scintillation counting", "type": "ADME"}, "Haemolymph [5]": {"tested_on": "Haemolymph", "assay": "Drug uptake in haemolymph of organophosphate-resistant Chilo suppressalis (rice stem borer) fifth-instar larvae assessed per mg protein by liquid scintillation counting", "type": "ADME"}, "Fat body [6]": {"tested_on": "Fat body", "assay": "Drug uptake in fat body of wild-type Chilo suppressalis (rice stem borer) fifth-instar larvae assessed per mg protein by liquid scintillation counting", "type": "ADME"}, "[7]": {"assay": "Drug uptake in cuticle/muscle of wild-type Chilo suppressalis (rice stem borer) fifth-instar larvae assessed per mg protein by liquid scintillation counting", "type": "ADME"}, "Midgut [8]": {"tested_on": "Midgut", "assay": "Drug uptake in midgut of organophosphate-resistant Chilo suppressalis (rice stem borer) fifth-instar larvae assessed per mg protein by liquid scintillation counting", "type": "ADME, tissue-based"}, "[9]": {"assay": "Drug uptake in cuticle/muscle of organophosphate-resistant Chilo suppressalis (rice stem borer) fifth-instar larvae assessed per mg protein by liquid scintillation counting", "type": "ADME"}, "Malpighian tubule [10]": {"tested_on": "Malpighian tubule", "assay": "Drug uptake in Malpighian tubules of wild-type Chilo suppressalis (rice stem borer) fifth-instar larvae assessed per mg protein by liquid scintillation counting", "type": "ADME"}, "Haemolymph [11]": {"tested_on": "Haemolymph", "assay": "Drug uptake in haemolymph of wild-type Chilo suppressalis (rice stem borer) fifth-instar larvae assessed per mg protein by liquid scintillation counting", "type": "ADME"}, "Midgut [12]": {"tested_on": "Midgut", "assay": "Drug uptake in midgut of wild-type Chilo suppressalis (rice stem borer) fifth-instar larvae assessed per mg protein by liquid scintillation counting", "type": "ADME, tissue-based"}, "Malpighian tubule [13]": {"tested_on": "Malpighian tubule", "assay": "Drug uptake in Malpighian tubules of organophosphate-resistant Chilo suppressalis (rice stem borer) fifth-instar larvae assessed per mg protein by liquid scintillation counting", "type": "ADME"}}}
{"smiles": "CC(=O)Oc1cccc2ccccc12", "note": "[ALPHA-NAPHTHYLACETATE]", "values": [{"measurement": "inhibition at 10 umol/ml", "setting": "[1]", "value": 61.8, "unit": "%"}]}
{"smiles": "COP(=S)(OC)Oc1ccc([N+](=O)[O-])c(C)c1", "note": "[FENITROTHION]", "values": [{"measurement": "LD50", "setting": "Chilo suppressalis [2]", "value": 2.42, "unit": "mg/kg"}, {"measurement": "LD50", "setting": "Chilo suppressalis [3]", "value": 77.3, "unit": "mg/kg"}]}
{"smiles": "COP(=O)(OC)Oc1ccc([N+](=O)[O-])c(C)c1", "note": "[FENITROXON]", "values": [{"measurement": "inhibition (INH)", "setting": "Carboxylesterase", "value": "Active"}, {"measurement": "Drug uptake", "setting": "Fat body [4]", "value": 0.35, "unit": "nmol/h"}, {"measurement": "Drug uptake", "setting": "Haemolymph [5]", "value": 0.1, "unit": "nmol/h"}, {"measurement": "Drug uptake", "setting": "Fat body [6]", "value": 0.052, "unit": "nmol/h"}, {"measurement": "Drug uptake", "setting": "[7]", "value": 0.044, "unit": "nmol/h"}, {"measurement": "Drug uptake", "setting": "Midgut [8]", "value": 1.5, "unit": "nmol/h"}, {"measurement": "Drug uptake", "setting": "[9]", "value": 0.24, "unit": "nmol/h"}, {"measurement": "Drug uptake", "setting": "Malpighian tubule [10]", "value": 0.24, "unit": "nmol/h"}, {"measurement": "Drug uptake", "setting": "Haemolymph [11]", "value": 0.042, "unit": "nmol/h"}, {"measurement": "Drug uptake", "setting": "Midgut [12]", "value": 0.22, "unit": "nmol/h"}, {"measurement": "Drug uptake", "setting": "Malpighian tubule [13]", "value": 2.1, "unit": "nmol/h"}]}
